Experimental data published in patent US20200376005A1, “SHIP INHIBITION TO COMBAT OBESITY” (THE RESEARCH FOUNDATION FOR THE STATE UNIVERSITY OF NEW YORK, priority 2013, published 2020).
“Also recorded” adds a separate entry of the source.

Legend:
[1] = 3-point bending test and microCT of femurs of 3AC treated mice; type: in vivo
Method: Mouse femurs were cleaned, wrapped in PBS-soaked gauze and frozen at […]. Femurs were rehydrated in a PBS solution at room temperature for 2 hours before testing. We employed a 3-point-bending test to assay the biomechanical properties of femurs treated with the 3AC inhibitor. Femurs were placed into a testing frame (1250 N Load Cell and a Q Test 1/L, MTS Systems Corp, Eden Prairie, Minn.), pre-loaded with 1 N and then loaded at 1 N/mm until failure. Prior to testing femurs were scanned using microCT to assay the geometric properties.

[2] = cited reference 3 of Example 22; cited from earlier work
[3] = 3AC treatment of adult C57BL6/J mice (DEXA, microCT, serum ELISA); type: in vivo; settings: vs vehicle, hydrochloride
[4] = 3AC treatment of aged C57BL/6 mice, fasting blood glucose and insulin; type: in vivo; settings: after 1 month treatment
Method: We noted that mutation of the SHIP1 paralog, SHIP2, also promotes resistance to diet-induced obesity and diabetes^2 We hypothesized then that treatment of adult or aging mice with a pan-SHIP1/2 inhibitor, 3AC^3,4, (SHIPi) might reduce body fat content. This was then tested by pulsatile SHIPi treatment of aged C57BL/6 mice that have begun to accumulate excess body fat and then assessing their body fat content via whole body DEXA imaging. […] This analysis confirmed that small molecule targetting of SHIP1/2 in vivo is a feasible approach to reverse the accumulation of excess body fat and glucose homeostasis during aging.

[5] = tested on: MIR cell; assay: MIR cell induction in treated mice; settings: in vivo, mice
Method: [Moto bene: DRV-IV-26=3A5AS].
The solubility of 3AC was assessed by calculating the distribution coefficient (CLogD). This calculation estimates the CLogD for 3AC at 7.17 indicating the molecule is very lipophilic. Thus, we have begun to develop novel 3AC analogs with increased aqueous solubility. One of these compounds, 3A5AS, has a CLogD of 3.33. Lipinski's rules (a common measure of small molecule pharmacokinetics) recommend a ClogD of <5 for in vivo applications.

CC(C)CCC[C@@H](C)[C@H]1CC[C@H]2[C@@H]3CCC4C[C@H](N)CC[C@]4(C)[C@H]3CC[C@]12C.Cl (stereo partly drawn) [3AC, 3α-Aminocholestane hydrochloride]
energy to fracture ([1]; 3-point bend): not observed to be significantly different
energy to peak ([1]; 3-point bend): not observed to be significantly different
decrease in the peak load ([1]; femurs of 3AC treated mice, 3-point bend, p<0.01): 15.4%
decrease in the stiffness ([1]; femurs of 3AC treated mice, 3-point bend, p<0.04): 21.6%
cortical thickness in the femurs ([1]; mid-shaft microCT): significant decreases
aqueous solubility [2]: poor aqueous solubility
whole-body BMD ([3]; DEXA, 25 mg/kg i.p. three times per week, 4, 8 and 16 weeks, 25 mg/kg): significantly reduces; also recorded: Significant decrease
percent body fat ([3]; DEXA, aging mice, 25 mg/kg three times per week, 25 mg/kg): significantly reduced; also recorded: Significant decrease
serum OPG ([3]; ELISA): significantly increases; also recorded: increased
serum RANKL ([3]; ELISA): decreased
bone mass (Bv/Tv) ([3]; microCT metaphysis, 25 mg/kg i.p. three times per week, 25 mg/kg): significantly reduces; also recorded: significantly decreased
fasting blood glucose [4]: significant decrease
insulin [4]: significant decrease
concentration inducing a comparable MIR cell increase [5]: 60 µM
